# Results: patent publication US20240366539A1, “METHODS FOR TREATING AUTISM SPECTRUM DISORDERS” (INSTITUT NATIONAL DE LA SANTÉ ET DE LA RECHERCHE MÉDICALE, priority 2021, published 2024)
# Tests used:
# Oprm1^−/− mice [1] = assay: Direct social interaction test; format: in vivo, mouse; settings: for social interaction in wild-type controls: Oprm1+/+ mice
# Method: (§1) Mice were treated with vehicle (NaCl 0.9%; ip, 10 or 20 ml/kg), NaBr (Sigma-Aldrich, Saint-Quentin Fallavier, France) administered either chronically (once a day, 10, 30, 70, 125, 250 and 500 mg/kg; i.p. or per os, in a volume of 20 ml/kg—except for combination with VU0155041: […]) or acutely (250 mg/kg, 20 ml/kg), KBr (Sigma-Aldrich, Saint-Quentin Fallavier, France; 145 mg/kg; i.p., 20 ml/kg), bumetanide (R&D systems, Minneapolis, USA, 0.5 and 2 mg/kg; i.p., 20 ml/kg) or VU0155041 (Cayman Chemicals, Ann Arbor, USA, once a day, i.p., 1 mg/kg, 10 ml/kg). […] When treatment was given chronically, behavioral testing started 8 days after beginning of daily administration. Treatment was maintained for 8 to 18 consecutive days (see timelines in FIGS. 1 and 4), allowing thorough behavioral phenotyping. On testing days, or when treatment was given acutely, drugs (or vehicle) were administered 30 min before behavioral assays.
# When assessing effects of chronic administration, experiments were performed successively (timelines in FIGS. 1 and 4) (51, 60). Testing order was chosen to minimize the incidence of anxiety on later assays. Direct social interaction and novelty suppressed feeding were performed in 4 equal square arenas (open fields, 50×50 cm) separated by 35 cm-high opaque grey Plexiglas walls over a white Plexiglas platform (View Point, Lyon, France). Stimulus mice used for the three-chamber test were 8-14-week-old grouped-housed male or female wild-type mice, socially naive to the experimental animals.
# Direct social interaction test. On testing day, a pair of unfamiliar mice (not cage mates, age-, sex- and treatment-matched) was introduced in each arena for 10 min (15 lx). Each arena received a black plastic floor (transparent to infrared). […] The mean duration of nose and paw contacts was calculated from previous data (61-63).
# Oprm1^−/− mice [2] = assay: Three-chamber social preference test; format: in vivo, mouse
# Method: as §1
# Three-chamber social preference test. The test apparatus consisted of a transparent acrylic box (exterior walls blinded with black plastic film); partitions divided the box into three equal chambers (40×20×22.5 cm). Two sliding doors (8×5 cm) allowed transitions between chambers. Cylindrical wire cages (18×9 cm, 0.5 cm diameter-rods spaced 1 cm apart) were used to contain the mouse interactor and object (soft-toy mouse). The test was performed in low-light conditions (15 lx) to minor anxiety. Stimulus wild-type mice were habituated to confinement in wire cages for 2 days before the test (20 min/day). On testing day, the experimental animal was introduced to the middle chamber and allowed to explore the whole apparatus for a 10-min habituation phase (wire cages empty) after the sliding doors were raised. The experimental mouse was then confined back in the middle-chamber while the experimenter introduced an unfamiliar wild type age and sex-matched animal into a wire cage in one of the side-chambers and a soft toy mouse (8×10 cm) in the second wire cage as a control for novelty. Then the experimental mouse was allowed to explore the apparatus for a 10-min interaction phase. The time spent in each chamber, the time spent in nose contact with each wire cage (empty: habituation; containing a mouse or a toy: interaction), as well as the number of these nose contacts were scored a posteriori on video recordings using an ethological keyboard (Labwatcher®, View Point, Lyon, France) by trained experimenters. […] The relative position of stimulus mice (versus toy) was counterbalanced between groups.
# Oprm1^−/− mice [3] = assay: Motor stereotypies; format: in vivo, mouse
# Method: as §1
# Motor stereotypies. To detect motor stereotypies in mutant versus wild-type animals, mice were individually placed in clear standard home cages (21×11×17 cm) filled with 3-cm deep fresh sawdust for 10 min (64). Light intensity was set at 30 lux. Trained experimenters scored numbers of head shakes, as well as rearing, burying, grooming, circling episodes and total time spent burying by direct observation.
# Oprm1^−/− mice [4] = assay: Marble-burying; format: in vivo, mouse; settings: Oprm1−/− mice; chronic NaBr 10-500 mg/kg or bumetanide 0.5 and 2 mg/kg
# Method: as §1
# Marble-burying. Marble burying was used as a measure of perseverative behavior (68). Mice were introduced individually in transparent cages (21×11×17 cm) containing 20 glass marbles (diameter: 1.5 cm) evenly spaced on 4-cm deep fresh sawdust. To prevent escapes, each cage was covered with a filtering lid. Light intensity in the room was set at 40 lux. The animals were removed from the cages after 15 min, and the number of marbles buried more than half in sawdust was quoted.
# Oprm1^−/− mice [5] = assay: Y-maze exploration; format: in vivo, mouse
# Method: as §1
# Y-maze exploration. Spontaneous alternation behavior was used to assess perseverative behavior (65-67). Each Y-maze consisted of three connected Plexiglas arms (15×15×17 cm) covered with distinct wall patterns (15 lx). Floors were covered with lightly sprayed fresh sawdust to limit anxiety. Each mouse was placed at the center of a maze and allowed to freely explore this environment for 5 min. The pattern of entries into each arm was quoted on video-recordings. Spontaneous alternations (SPA), i.e. successive entries into each arm forming overlapping triplet sets, alternate arm returns (AAR) and same arm returns (SAR) were scored, and the percentage of SPA, AAR and SAR was calculated as following: total/(total arm entries−2)*100.
# Oprm1^−/− mice [6] = assay: Novelty-suppressed feeding; format: in vivo, mouse; settings: chronic NaBr (since the lowest dose tested) or bumetanide
# Method: as §1
# Novelty-suppressed feeding. Novelty-suppressed feeding (NSF) was measured in 24-hr food-deprived mice, isolated in a standard housing cage for 30 min before individual testing. Three pellets of ordinary lab chow were placed on a white tissue in the center of each arena, lit at 60 lx. Each mouse was placed in a corner of an arena and allowed to explore for a maximum of 15 min. Latency to feed was measured as the time necessary to bite a food pellet. Immediately after an eating event, the mouse was transferred back to home cage (free from cage-mates) and allowed to feed on lab chow for 5 min. Food consumption in the home cage was measured.
# rodent models of ASD = settings: preclinical studies; cited from earlier work
# patients = settings: cited from earlier work
# Oprm1^−/− mice [7] = assay: Tail-immersion test; format: in vivo, mouse; settings: 50° C., NaBr 70 mg/kg, VU0155041 1 mg/kg, alone or combined, chronic
# Method: as §1
# Tail-immersion test. Nociceptive thresholds were assessed by immersing the tail of the mice (5 cm from the tip) successively into water baths at 48° C., 50° C. and 52° C. The latency to withdraw the tail was measured at each temperature, with a cutoff of 10 s.
# Oprm1^−/− mice [8] = assay: Behavioral tests of social, repetitive and anxious behavior (oral NaBr, KBr; data not shown); settings: mouse, in vivo
# Method: as §1
# (§2) Also, we assessed the behavioral effects of chronic administration of another bromide salt, KBr.
# [9] = dose of KBr equivalent to 250 mg/kg NaBr; pilot experiments
# From the text: as §2
# [10] = Oprm1−/− mice, chronic once daily, NaBr 10-500 mg/kg (effect from 125 mg/kg) or bumetanide 0.5 and 2 mg/kg, D9
# [11] = Oprm1−/− mice, one week after cessation of chronic treatment (NaBr over 70 mg/kg, highest doses; bumetanide depending on the dose)
# [12] = chronic NaBr 10-500 mg/kg or bumetanide 0.5 and 2 mg/kg
# [13] = chronic NaBr (since lowest dose, 10 mg/kg) or bumetanide 0.5 and 2 mg/kg
# [14] = Oprm1−/− mice, chronic NaBr 10-500 mg/kg or bumetanide 0.5 and 2 mg/kg
# [15] = Oprm1−/− mice, NaBr 70 mg/kg, VU0155041 1 mg/kg, alone or combined, once daily, chronic
structure (smiles),measurement,setting,value
CCCCNc1cc(C(=O)O)cc(S(N)(=O)=O)c1Oc1ccccc1 [bumetanide],social interaction in wild-type controls,"Oprm1^−/− mice [1]; chronic once daily, NaBr 10-500 mg/kg or bumetanide 0.5 and 2 mg/kg",showed deleterious effects on social interaction parameters in WT controls
same,social interaction in wild-type controls,"Oprm1^−/− mice [1]; chronic once daily, NaBr 10-500 mg/kg or bumetanide 0.5 and 2 mg/kg, listed as Bumetanide","at the highest dose, it impaired social interaction in wild-type controls"
same,social interaction deficit,"Oprm1^−/− mice [1]; Oprm1−/− mice, chronic once daily i.p., NaBr 10-500 mg/kg or bumetanide 0.5 and 2 mg/kg, D9",had only partial effects
same,number of nose contacts,"Oprm1^−/− mice [1]; Oprm1−/− mice, chronic once daily, NaBr 10-500 mg/kg (effect from 125 mg/kg) or bumetanide 0.5 and 2 mg/kg (effect at low dose), D9",increased the number of nose contacts
same,mean duration of nose contacts,Oprm1^−/− mice [1]; [10],failed to increase significantly the duration of nose contacts
same,mean duration of paw contacts,Oprm1^−/− mice [1]; [10],failed to increase significantly
same,number of paw contacts,Oprm1^−/− mice [1]; [10],failed to increase significantly
same,grooming after social contact,"Oprm1^−/− mice [1]; Oprm1−/− mice, chronic once daily, NaBr 10-500 mg/kg or bumetanide 0.5 and 2 mg/kg, D9","suppressed grooming episodes, notably those occurring after social contact, since the lowest dose tested"
same,duration of nose contacts,Oprm1^−/− mice [1]; [11],beneficial effects of bumetanide were still detectable
same,grooming after social contact,Oprm1^−/− mice [1]; [11],still detectable
same,number of following episodes,"Oprm1^−/− mice [1]; chronic once daily, NaBr 10-500 mg/kg (both mouse lines) or bumetanide (at low dose), D9",increased
same,social preference ratio,Oprm1^−/− mice [2]; [12],significant but partial recovery of social preference ratio
same,duration of nose contacts with the mouse versus the toy,Oprm1^−/− mice [2]; [13],"dose-dependently increased the duration of nose contacts with the mouse, but failed to reduce the duration of nose contacts with the toy"
same,number of nose contacts with the mouse versus the toy,Oprm1^−/− mice [2]; [13],at the lowest dose restored a preference for making more frequent nose contacts with the mouse over the toy
same,number of head shakes,Oprm1^−/− mice [3]; [14],suppressed circling and head shakes in mutant mice
same,stereotypic circling episodes,Oprm1^−/− mice [3]; [14],suppressed circling and head shakes in mutant mice
same,number of rearing episodes,"Oprm1^−/− mice [3]; both mouse lines (Oprm1−/− and Oprm1+/+), chronic NaBr or bumetanide",reduced the number of rearing episodes in both mouse lines
same,excessive marble burying,Oprm1^−/− mice [4],failed to suppress excessive marble burying in Oprm1^−/− mice
same,perseverative same arm returns,Oprm1^−/− mice [5]; [12],globally failed to suppress those
same,latency to eat,Oprm1^−/− mice [6]; Oprm1−/− mice,had no detectable effect on either latency to eat
same,food intake,Oprm1^−/− mice [6]; both mouse lines,had no detectable effect
same,autistic-like behaviors / phenotype in animal models,rodent models of ASD,improve autistic-like phenotype in rodent models of ASD
same,autistic behavior in small cohorts of patients,patients,relieve autistic behavior in small cohorts of patients
same,clinical benefit in a larger clinical trial,patients,"failed to be confirmed in a larger clinical trial, except for a reduction of repetitive behavior"
NC[C@H](CC(=O)O)c1ccc(Cl)cc1 [arbaclofen],autistic-like behaviors / phenotype in animal models,rodent models of ASD,improve autistic-like behaviors in animal models
O=C(Nc1cc(Cl)cc(Cl)c1)C1CCCC[C@H]1C(=O)O (stereo partly shown) [VU0155041],duration of nose contacts,Oprm1^−/− mice [1]; [15],partially rescued the duration of their nose contacts
same,grooming episodes after social contact,Oprm1^−/− mice [1]; [15],suppressed grooming episodes after a social contact
same,"effect in the social interaction test, pilot experiment",Oprm1^−/− mice [1]; liminal dose of VU0155041 (1 mg/kg i.p.),no detectable effect in the social interaction test
same,frequency of nose contacts with the mouse versus the toy,"Oprm1^−/− mice [2]; NaBr 70 mg/kg or VU0155041 1 mg/kg, once daily, chronic",sufficient to restore more frequent nose contacts with the mouse versus the toy
same,duration of nose contacts with the mouse versus the toy,"Oprm1^−/− mice [2]; NaBr 70 mg/kg, VU0155041 1 mg/kg, alone or combined, once daily, chronic",increased the duration of nose contacts with the mouse to that of the toy
same,perseverative same arm returns,Oprm1^−/− mice [5]; chronic VU0155041 1 mg/kg,sufficient to suppress perseverative same arm returns
same,flicking latency (nociceptive threshold),Oprm1^−/− mice [7],ineffective
"[Br-].[K+] [KBr, potassium bromide]","social, repetitive and anxious behavior, compared with NaBr treatment",Oprm1^−/− mice [8],"fully replicated, if not exceeded, by KBr"
same,toxicity,[9],toxic
